In patent US12310975B2, “Modulators of BCL6 proteolysis and associated methods of use” (Arvinas Operations, Inc., priority 2019, dated 2025):

How the values were obtained:
[1] = target: T1, BCL6 (Homo sapiens (Human), UniProt P41182); experiment: Immunofluorescence high content imaging of BCL6 degradation in T47D cells; assay type: cell-based; settings: for DC50: class symbols A-D, read-out: EC50 (nM)*
How it was run: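 T47D cells were treated for 3 days at 37 °C with 11-point 3-fold dilutions of bifunctional degrader (final top 0.1 or 1 μM). BCL6 was detected by immunofluorescence after PFA fixation, with Hoechst and cell mask counterstains, and imaged at 10×, 4 fields/well.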

[2] = target: T1, BCL6; experiment: BCL6 TR-FRET assay (BCL6-Avitag-Biotin / BCoR-Cy5 peptide); assay type: binding
How it was run: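 TR-FRET displacement assay: biotinylated His-SUMO-BCL6-Avitag (2 nM) pre-incubated 30 min at room temperature with compound (12-point 3-fold titration), then BCoR-Cy5 peptide (100 nM) and Eu-streptavidin (2 nM) added. Buffer: 50 mM HEPES pH 7.5, 125 mM NaCl, 0.01% Triton X, glutathione or DTT, 0.03% BSA. Read after 2 h.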

[3] = T47D, maximum, class symbols A-C
[4] = class symbols A-D, read-out: IC50 (nM)***

Structure (SMILES)	IC50 [1]	Dmax ([1]; T47D)	EC50 [2]	IC50 ([2]; read-out: IC50)	further results
CC(=O)COc1cc2cc(Nc3nc(N4CCC(OCCN5CCN(c6ccc7c(c6)CN(C6CCC(=O)NC6=O)C7=O)CC5)CC4)ncc3Cl)ccc2n(C)c1=O (stereo not drawn) [compound 128, 3-(5-(4-(2-((1-(5-chloro-4-((1-methyl-2-oxo-3-(2-oxopropoxy)-1,2-dihydroquinolin-6-yl)amino)pyrimidin-2-yl)piperidin-4-yl)oxy)ethyl)piperazin-1-yl)-1-oxoisoindolin-2-yl)piperidine-2,6-dione]					Dmax [1, 3]: < 50%; DC50 [1]: < 10 nM; IC50 [2, 4]: < 10 nM
CC(=O)COc1cc2cc(Nc3nc(N4CCC(N(C)C5CCN(c6ccc7c(c6)C(=O)N(C6CCC(=O)NC6=O)C7=O)CC5)CC4)ncc3Cl)ccc2n(C)c1=O (stereo not drawn) [compound 169, 5-(4-((1-(5-chloro-4-((1-methyl-2-oxo-3-(2-oxopropoxy)-1,2-dihydroquinolin-6-yl)amino)pyrimidin-2-yl)piperidin-4-yl)(methyl)amino)piperidin-1-yl)-2-(2,6-dioxopiperidin-3-yl)isoindoline-1,3-dione]					Dmax [1, 3]: 50 to 70%; DC50 [1]: < 10 nM; IC50 [2, 4]: 10 to 50 nM
CC(=O)[C@H](C)Oc1cc2cc(Nc3nc(N4CCC(CN5CCN(c6ccc7c(c6)C(=O)N([C@H]6CCC(=O)NC6=O)C7=O)CC5)CC4)ncc3Cl)ccc2n(C)c1=O [compound 217, 5-(4-((1-(5-chloro-4-((1-methyl-2-oxo-3-(((S)-3-oxobutan-2-yl)oxy)-1,2-dihydroquinolin-6-yl)amino)pyrimidin-2-yl)piperidin-4-yl)methyl)piperazin-1-yl)-2-((S)-2,6-dioxopiperidin-3-yl)isoindoline-1,3-dione]	≥ 100 nM	< 50%	> 100 nM		
CNC(=O)COc1cc2cc(Nc3nc(N4CCOC(COc5cccc6c5C(=O)N(C5CCC(=O)NC5=O)C6=O)C4)ncc3Cl)ccc2n(C)c1=O (stereo not drawn) [compound 226, 2-((6-((5-chloro-2-(2-(((2-(2,6-dioxopiperidin-3-yl)-1,3-dioxoisoindolin-4-yl)oxy)methyl)morpholino)pyrimidin-4-yl)amino)-1-methyl-2-oxo-1,2-dihydroquinolin-3-yl)oxy)-N-methylacetamide]	50 to 100 nM	< 50%	10 to 50 nM		
CNC(=O)COc1cc2cc(Nc3nc(N4CCC(C(C)(C)N5CCN(c6ccc7c(c6)C(=O)N(C6CCC(=O)NC6=O)C7=O)CC5)CC4)ncc3Cl)ccc2n(C)c1=O (stereo not drawn) [compound 200, 2-((6-((5-chloro-2-(4-(2-(4-(2-(2,6-dioxopiperidin-3-yl)-1,3-dioxoisoindolin-5-yl)piperazin-1-yl)propan-2-yl)piperidin-1-yl)pyrimidin-4-yl)amino)-1-methyl-2-oxo-1,2-dihydroquinolin-3-yl)oxy)-N-methylacetamide]	10 to 50 nM	50 to 70%	> 100 nM		
CNC(=O)COc1cc2cc(Nc3nc(N4CCC5(CCN(CC6CCN(c7cccc8c7C(=O)N(C7CCC(=O)NC7=O)C8=O)CC6)CC5)C4)ncc3Cl)ccc2n(C(C)C)c1=O (stereo not drawn) [compound 513, 2-{[6-({5-chloro-2-[8-({1-[2-(2,6-dioxopiperidin-3-yl)-1,3-dioxo-2,3-dihydro-1H-isoindol-4-yl]piperidin-4-yl}methyl)-2,8-diazaspiro[4.5]decan-2-yl]pyrimidin-4-yl}amino)-2-oxo-1-(propan-2-yl)-1,2-dihydroquinolin-3-yl]oxy}-N-methylacetamide]		≥ 70%		< 10 nM	
CNC(=O)[C@H](C)Oc1cc2cc(Nc3nc(N4CCC(CN5CCN(c6ccc7c(c6)C(=O)N([C@H]6CCC(=O)NC6=O)C7=O)CC5)CC4)ncc3Cl)ccc2n(C)c1=O [compound 211, (S)-2-((6-((5-chloro-2-(4-((4-(2-((S)-2,6-dioxopiperidin-3-yl)-1,3-dioxoisoindolin-5-yl)piperazin-1-yl)methyl)piperidin-1-yl)pyrimidin-4-yl)amino)-1-methyl-2-oxo-1,2-dihydroquinolin-3-yl)oxy)-N-methylpropanamide]	≥ 100 nM		> 100 nM		
Cn1c(=O)n(CCC(C)(C)O)c2cc(Nc3nc(N4CCC(CN5CCN(c6cccc7c6C(=O)N(C6CCC(=O)NC6=O)C7=O)CC5)CC4)ncc3Cl)ccc21 (stereo not drawn) [compound 492, 4-(4-{[1-(5-chloro-4-{[3-(3-hydroxy-3-methylbutyl)-1-methyl-2-oxo-2,3-dihydro-1H-1,3-benzodiazol-5-yl]amino}pyrimidin-2-yl)piperidin-4-yl]methyl}piperazin-1-yl)-2-(2,6-dioxopiperidin-3-yl)-2,3-dihydro-1H-isoindole-1,3-dione]		50 to 70%		50 to 100 nM	
CNC(=O)COc1cc2cc(Nc3nc(N4CCN(CC5CCN(c6cccc(F)c6C(=O)NC6CCC(=O)NC6=O)CC5)CC4)ncc3Cl)ccc2n(C)c1=O (stereo not drawn) [compound 275, 2-[4-({4-[5-chloro-4-({1-methyl-3-[(methylcarbamoyl)methoxy]-2-oxo-1,2-dihydroquinolin-6-yl}amino)pyrimidin-2-yl]piperazin-1-yl}methyl)piperidin-1-yl]-N-(2,6-dioxopiperidin-3-yl)-6-fluorobenzamide]	< 10 nM	< 50%	10 to 50 nM		
CNC(=O)COc1cc2cc(Nc3nc(N4CCN(CC5CCC6(CC5)CN(c5ccc7c(c5)C(=O)N(C5CCC(=O)NC5=O)C7=O)C6)CC4)ncc3Cl)ccc2n(C(C)C)c1=O (stereo not drawn) [compound 451, 2-{[6-({5-chloro-2-[4-({2-[2-(2,6-dioxopiperidin-3-yl)-1,3-dioxo-2,3-dihydro-1H-isoindol-5-yl]-2-azaspiro[3.5]nonan-7-yl}methyl)piperazin-1-yl]pyrimidin-4-yl}amino)-2-oxo-1-(propan-2-yl)-1,2-dihydroquinolin-3-yl]oxy}-N-methylacetamide]		50 to 70%		< 10 nM	
CNC(=O)COc1cc2cc(Nc3nc(N4CCN(CC5CCN(c6cc(OC)cc(C(=O)NC7CCC(=O)NC7=O)c6F)CC5)CC4)ncc3Cl)ccc2n(C(C)C)c1=O (stereo not drawn) [compound 473, 3-[4-({4-[5-chloro-4-({3-[(methylcarbamoyl)methoxy]-2-oxo-1-(propan-2-yl)-1,2-dihydroquinolin-6-yl}amino)pyrimidin-2-yl]piperazin-1-yl}methyl)piperidin-1-yl]-N-(2,6-dioxopiperidin-3-yl)-2-fluoro-5-methoxybenzamide]		50 to 70%		< 10 nM	
CNC(=O)COc1cc2cc(Nc3nc(N4CCOC(CN5CCN(c6cccc7c6C(=O)N(C6CCC(=O)NC6=O)C7=O)CC5)C4)ncc3Cl)ccc2n(C)c1=O (stereo not drawn) [compound 271, 2-{[6-({5-chloro-2-[2-({4-[2-(2,6-dioxopiperidin-3-yl)-1,3-dioxo-2,3-dihydro-1H-isoindol-4-yl]piperazin-1-yl}methyl)morpholin-4-yl]pyrimidin-4-yl}amino)-1-methyl-2-oxo-1,2-dihydroquinolin-3-yl]oxy}-N-methylacetamide]	50 to 100 nM	50 to 70%	10 to 50 nM		
CNC(=O)COc1cc2cc(Nc3nc(N4CCN(CC5CCN(c6cc(OC)cc(C(=O)NC7CCC(=O)NC7=O)c6F)CC5)CC4)ncc3Cl)ccc2n(C)c1=O (stereo not drawn) [compound 465, 3-[4-({4-[5-chloro-4-({1-methyl-3-[(methylcarbamoyl)methoxy]-2-oxo-1,2-dihydroquinolin-6-yl}amino)pyrimidin-2-yl]piperazin-1-yl}methyl)piperidin-1-yl]-N-(2,6-dioxopiperidin-3-yl)-2-fluoro-5-methoxybenzamide]		50 to 70%		< 10 nM	
CNC(=O)COc1cc2cc(Nc3nc(N4CCN(CC5CCN(c6cccc7c6C(=O)N(C6CCC(=O)NC6=O)C7=O)CC5)CC4)ncc3Cl)ccc2n(CCC2COC2)c1=O (stereo not drawn) [compound 503, 2-{[6-({5-chloro-2-[4-({1-[2-(2,6-dioxopiperidin-3-yl)-1,3-dioxo-2,3-dihydro-1H-isoindol-4-yl]piperidin-4-yl}methyl)piperazin-1-yl]pyrimidin-4-yl}amino)-1-[2-(oxetan-3-yl)ethyl]-2-oxo-1,2-dihydroquinolin-3-yl]oxy}-N-methylacetamide]		≥ 70%		< 10 nM	
CNC(=O)COc1cc2cc(Nc3nc(N4CCC[C@H](COc5cccc6c5C(=O)N(C5CCC(=O)NC5=O)C6=O)C4)ncc3Cl)ccc2n(CCOC)c1=O (stereo partly drawn) [compound 455, 2-{[6-({5-chloro-2-[(3S)-3-({[2-(2,6-dioxopiperidin-3-yl)-1,3-dioxo-2,3-dihydro-1H-isoindol-4-yl]oxy}methyl)piperidin-1-yl]pyrimidin-4-yl}amino)-1-(2-methoxyethyl)-2-oxo-1,2-dihydroquinolin-3-yl]oxy}-N-methylacetamide]		≥ 70%		50 to 100 nM	
CN1C(=O)CCc2cc(Nc3nc(N4CCN(CC5CCN(c6cccc7c6C(=O)N(C6CCC(=O)NC6=O)C7=O)CC5)CC4)ncc3Cl)ccc21 (stereo not drawn) [compound 378, 4-{4-[(4-{5-chloro-4-[(1-methyl-2-oxo-1,2,3,4-tetrahydroquinolin-6-yl)amino]pyrimidin-2-yl}piperazin-1-yl)methyl]piperidin-1-yl}-2-(2,6-dioxopiperidin-3-yl)-2,3-dihydro-1H-isoindole-1,3-dione]			> 100 nM		Dmax ([1]; T47D cells): < 50%; IC50 ([1]; T47D cells): ≥ 100 nM
CNC(=O)COc1cc2cc(Nc3nc(N4CC5(CCC(OC6CCN(c7ccc8c(c7)C(=O)N(C7CCC(=O)NC7=O)C8=O)CC6)CC5)C4)ncc3Cl)ccc2n(C(C)C)c1=O (stereo not drawn) [compound 444, 2-{[6-({5-chloro-2-[7-({1-[2-(2,6-dioxopiperidin-3-yl)-1,3-dioxo-2,3-dihydro-1H-isoindol-5-yl]piperidin-4-yl}oxy)-2-azaspiro[3.5]nonan-2-yl]pyrimidin-4-yl}amino)-2-oxo-1-(propan-2-yl)-1,2-dihydroquinolin-3-yl]oxy}-N-methylacetamide]		50 to 70%		< 10 nM	
